ChEMBL document CHEMBL5442219

Experiments:
Details in all cases: Compound concentration 10 µM
[1] = target: T1, Alpha-2A adrenergic receptor (Homo sapiens) (UniProt P08913)
T1 sequence (whole entry): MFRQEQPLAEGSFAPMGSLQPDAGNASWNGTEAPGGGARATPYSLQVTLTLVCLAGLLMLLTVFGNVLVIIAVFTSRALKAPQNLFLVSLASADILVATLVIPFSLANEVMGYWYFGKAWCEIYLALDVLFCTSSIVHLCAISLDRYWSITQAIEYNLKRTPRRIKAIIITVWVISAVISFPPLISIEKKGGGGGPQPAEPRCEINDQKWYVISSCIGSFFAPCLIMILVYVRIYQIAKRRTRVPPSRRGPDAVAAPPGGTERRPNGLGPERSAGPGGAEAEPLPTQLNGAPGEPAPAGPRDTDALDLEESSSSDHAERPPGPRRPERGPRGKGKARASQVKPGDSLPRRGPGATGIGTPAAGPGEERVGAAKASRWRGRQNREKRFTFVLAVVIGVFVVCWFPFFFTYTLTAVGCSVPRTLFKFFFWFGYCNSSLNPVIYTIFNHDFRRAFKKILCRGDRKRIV

[2] = target: T2, Alpha-2C adrenergic receptor (Homo sapiens) (UniProt P18825)
T2 sequence (whole entry): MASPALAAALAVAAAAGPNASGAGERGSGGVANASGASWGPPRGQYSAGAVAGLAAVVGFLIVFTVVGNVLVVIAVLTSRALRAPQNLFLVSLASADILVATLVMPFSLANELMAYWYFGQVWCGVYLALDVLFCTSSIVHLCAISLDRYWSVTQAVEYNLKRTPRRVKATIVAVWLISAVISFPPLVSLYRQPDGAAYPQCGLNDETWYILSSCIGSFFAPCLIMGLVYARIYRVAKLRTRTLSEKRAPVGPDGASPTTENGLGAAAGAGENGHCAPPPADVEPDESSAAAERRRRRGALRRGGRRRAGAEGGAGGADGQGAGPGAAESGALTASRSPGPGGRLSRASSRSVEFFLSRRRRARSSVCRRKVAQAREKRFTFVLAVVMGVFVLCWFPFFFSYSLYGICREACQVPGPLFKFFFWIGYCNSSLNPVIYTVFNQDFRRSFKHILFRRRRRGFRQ

[3] = target: Beta-2 adrenergic receptor (Homo sapiens) (UniProt P07550)
Beta-2 adrenergic receptor (Homo sapiens), sequence (P07550 whole entry, looked up): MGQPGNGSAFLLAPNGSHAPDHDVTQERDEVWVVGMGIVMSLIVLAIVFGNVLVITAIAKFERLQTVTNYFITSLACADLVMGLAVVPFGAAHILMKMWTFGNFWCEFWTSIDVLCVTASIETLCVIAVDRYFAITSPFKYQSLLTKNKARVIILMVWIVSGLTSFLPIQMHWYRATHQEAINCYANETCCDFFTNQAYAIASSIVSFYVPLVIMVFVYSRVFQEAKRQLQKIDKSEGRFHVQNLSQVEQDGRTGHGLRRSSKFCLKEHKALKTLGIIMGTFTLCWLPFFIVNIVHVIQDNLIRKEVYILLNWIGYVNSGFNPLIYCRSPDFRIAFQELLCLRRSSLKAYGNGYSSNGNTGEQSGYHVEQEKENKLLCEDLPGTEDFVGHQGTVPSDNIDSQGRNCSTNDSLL

[4] = target: T3, Muscarinic acetylcholine receptor M5 (Homo sapiens) (UniProt P08912)
T3 sequence (whole entry): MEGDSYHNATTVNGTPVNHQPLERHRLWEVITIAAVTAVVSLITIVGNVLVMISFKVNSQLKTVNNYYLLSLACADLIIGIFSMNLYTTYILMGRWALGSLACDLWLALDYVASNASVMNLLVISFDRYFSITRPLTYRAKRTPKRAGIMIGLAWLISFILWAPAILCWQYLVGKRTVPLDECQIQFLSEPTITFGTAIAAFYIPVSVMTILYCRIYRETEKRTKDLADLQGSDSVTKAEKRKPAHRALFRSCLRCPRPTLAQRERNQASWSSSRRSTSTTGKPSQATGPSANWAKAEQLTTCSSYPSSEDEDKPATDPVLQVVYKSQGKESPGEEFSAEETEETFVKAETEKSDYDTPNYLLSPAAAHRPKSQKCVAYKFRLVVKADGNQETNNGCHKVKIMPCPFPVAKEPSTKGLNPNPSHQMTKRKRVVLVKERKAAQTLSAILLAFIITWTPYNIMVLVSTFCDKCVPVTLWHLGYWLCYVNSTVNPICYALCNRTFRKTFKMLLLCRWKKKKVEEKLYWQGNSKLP

[5] = target: D(1A) dopamine receptor (Homo sapiens) (UniProt P21728)
D(1A) dopamine receptor (Homo sapiens), sequence (P21728 whole entry): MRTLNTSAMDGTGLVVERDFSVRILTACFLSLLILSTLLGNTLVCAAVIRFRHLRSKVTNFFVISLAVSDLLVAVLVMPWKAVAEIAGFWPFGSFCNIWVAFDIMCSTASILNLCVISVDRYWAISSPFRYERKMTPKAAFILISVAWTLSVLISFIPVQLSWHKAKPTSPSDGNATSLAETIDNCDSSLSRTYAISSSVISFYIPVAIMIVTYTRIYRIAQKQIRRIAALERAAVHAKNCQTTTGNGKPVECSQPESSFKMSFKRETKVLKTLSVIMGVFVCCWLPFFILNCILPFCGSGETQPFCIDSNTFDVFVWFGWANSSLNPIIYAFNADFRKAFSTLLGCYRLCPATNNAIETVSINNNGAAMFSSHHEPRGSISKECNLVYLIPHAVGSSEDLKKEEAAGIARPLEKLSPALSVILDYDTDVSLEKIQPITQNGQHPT

[6] = target: D(2) dopamine receptor (Homo sapiens) (UniProt P14416)
D(2) dopamine receptor (Homo sapiens), sequence (P14416 whole entry): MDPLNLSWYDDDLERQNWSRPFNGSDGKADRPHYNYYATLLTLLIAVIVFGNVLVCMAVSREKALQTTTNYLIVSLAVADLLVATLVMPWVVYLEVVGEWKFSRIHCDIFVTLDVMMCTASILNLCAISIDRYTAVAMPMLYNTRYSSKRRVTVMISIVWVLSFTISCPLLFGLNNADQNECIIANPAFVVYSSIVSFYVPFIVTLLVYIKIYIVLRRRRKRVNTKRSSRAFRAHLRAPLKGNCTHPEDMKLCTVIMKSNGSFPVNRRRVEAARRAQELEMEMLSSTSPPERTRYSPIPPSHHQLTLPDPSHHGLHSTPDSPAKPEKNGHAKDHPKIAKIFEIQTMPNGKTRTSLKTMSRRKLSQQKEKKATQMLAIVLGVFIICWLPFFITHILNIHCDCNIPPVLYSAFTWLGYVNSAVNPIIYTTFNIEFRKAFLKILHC

[7] = target: D(3) dopamine receptor (Homo sapiens) (UniProt P35462)
D(3) dopamine receptor (Homo sapiens), sequence (P35462 whole entry): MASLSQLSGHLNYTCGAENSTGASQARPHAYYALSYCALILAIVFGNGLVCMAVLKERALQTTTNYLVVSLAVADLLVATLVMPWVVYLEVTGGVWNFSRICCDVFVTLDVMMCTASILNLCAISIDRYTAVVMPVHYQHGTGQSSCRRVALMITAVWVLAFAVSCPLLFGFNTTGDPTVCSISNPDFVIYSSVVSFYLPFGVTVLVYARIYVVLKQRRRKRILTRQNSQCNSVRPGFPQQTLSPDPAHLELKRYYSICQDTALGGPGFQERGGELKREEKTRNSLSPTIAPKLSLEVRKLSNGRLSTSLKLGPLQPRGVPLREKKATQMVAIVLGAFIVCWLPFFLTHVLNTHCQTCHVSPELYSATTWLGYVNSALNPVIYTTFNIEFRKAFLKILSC

[8] = target: D(1B) dopamine receptor (Homo sapiens) (UniProt P21918)
D(1B) dopamine receptor (Homo sapiens), sequence (P21918 whole entry): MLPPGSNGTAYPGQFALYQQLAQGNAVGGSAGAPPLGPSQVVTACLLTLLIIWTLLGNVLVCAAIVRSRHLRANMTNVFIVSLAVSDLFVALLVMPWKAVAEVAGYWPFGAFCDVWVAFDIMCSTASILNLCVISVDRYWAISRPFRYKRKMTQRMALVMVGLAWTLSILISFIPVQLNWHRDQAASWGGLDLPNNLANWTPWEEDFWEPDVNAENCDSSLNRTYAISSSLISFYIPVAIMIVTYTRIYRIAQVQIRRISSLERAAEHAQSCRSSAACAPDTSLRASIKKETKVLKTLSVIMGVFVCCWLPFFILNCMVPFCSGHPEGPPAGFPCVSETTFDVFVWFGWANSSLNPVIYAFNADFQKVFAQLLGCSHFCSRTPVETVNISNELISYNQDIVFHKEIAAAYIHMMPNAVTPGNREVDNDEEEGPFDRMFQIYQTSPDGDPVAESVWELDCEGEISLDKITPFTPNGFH

[9] = target: Histamine H4 receptor (Homo sapiens) (UniProt Q9H3N8)
[10] = target: T4, 5-hydroxytryptamine receptor 1A (Homo sapiens) (UniProt P08908)
T4 sequence (whole entry): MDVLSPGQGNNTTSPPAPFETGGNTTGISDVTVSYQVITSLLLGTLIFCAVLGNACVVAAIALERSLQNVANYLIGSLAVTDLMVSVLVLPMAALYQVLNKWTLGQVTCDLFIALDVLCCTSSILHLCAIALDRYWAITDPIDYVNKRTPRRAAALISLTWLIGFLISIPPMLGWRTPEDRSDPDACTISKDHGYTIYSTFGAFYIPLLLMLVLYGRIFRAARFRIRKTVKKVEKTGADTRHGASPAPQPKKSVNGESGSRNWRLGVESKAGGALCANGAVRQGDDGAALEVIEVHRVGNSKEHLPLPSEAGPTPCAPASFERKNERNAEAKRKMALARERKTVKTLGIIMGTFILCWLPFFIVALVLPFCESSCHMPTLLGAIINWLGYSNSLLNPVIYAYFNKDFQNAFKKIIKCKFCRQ

[11] = target: 5-hydroxytryptamine receptor 1B (Homo sapiens) (UniProt P28222)
5-hydroxytryptamine receptor 1B (Homo sapiens), sequence (P28222 whole entry): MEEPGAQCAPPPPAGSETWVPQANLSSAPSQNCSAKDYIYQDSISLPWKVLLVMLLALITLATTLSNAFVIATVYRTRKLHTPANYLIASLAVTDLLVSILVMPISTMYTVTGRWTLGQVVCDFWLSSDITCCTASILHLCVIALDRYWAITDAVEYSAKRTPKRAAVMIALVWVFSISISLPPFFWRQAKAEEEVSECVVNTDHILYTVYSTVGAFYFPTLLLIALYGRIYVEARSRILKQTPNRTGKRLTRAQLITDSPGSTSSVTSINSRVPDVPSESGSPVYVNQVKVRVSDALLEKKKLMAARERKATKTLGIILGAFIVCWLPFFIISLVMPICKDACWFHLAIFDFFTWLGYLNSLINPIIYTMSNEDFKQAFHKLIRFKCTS

[12] = target: 5-hydroxytryptamine receptor 1D (Homo sapiens) (UniProt P28221)
5-hydroxytryptamine receptor 1D (Homo sapiens), sequence (P28221 whole entry): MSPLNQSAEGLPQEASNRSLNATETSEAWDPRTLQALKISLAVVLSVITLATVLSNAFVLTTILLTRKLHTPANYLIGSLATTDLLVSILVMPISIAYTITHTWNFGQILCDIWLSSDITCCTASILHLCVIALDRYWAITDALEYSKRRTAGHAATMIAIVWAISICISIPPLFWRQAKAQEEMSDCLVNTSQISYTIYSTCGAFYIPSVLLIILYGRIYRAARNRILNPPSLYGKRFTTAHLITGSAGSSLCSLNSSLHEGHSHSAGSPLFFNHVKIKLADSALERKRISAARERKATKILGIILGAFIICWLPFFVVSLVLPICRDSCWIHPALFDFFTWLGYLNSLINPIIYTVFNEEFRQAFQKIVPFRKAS

[13] = target: 5-hydroxytryptamine receptor 2A (Homo sapiens) (UniProt P28223)
5-hydroxytryptamine receptor 2A (Homo sapiens), sequence (P28223 whole entry): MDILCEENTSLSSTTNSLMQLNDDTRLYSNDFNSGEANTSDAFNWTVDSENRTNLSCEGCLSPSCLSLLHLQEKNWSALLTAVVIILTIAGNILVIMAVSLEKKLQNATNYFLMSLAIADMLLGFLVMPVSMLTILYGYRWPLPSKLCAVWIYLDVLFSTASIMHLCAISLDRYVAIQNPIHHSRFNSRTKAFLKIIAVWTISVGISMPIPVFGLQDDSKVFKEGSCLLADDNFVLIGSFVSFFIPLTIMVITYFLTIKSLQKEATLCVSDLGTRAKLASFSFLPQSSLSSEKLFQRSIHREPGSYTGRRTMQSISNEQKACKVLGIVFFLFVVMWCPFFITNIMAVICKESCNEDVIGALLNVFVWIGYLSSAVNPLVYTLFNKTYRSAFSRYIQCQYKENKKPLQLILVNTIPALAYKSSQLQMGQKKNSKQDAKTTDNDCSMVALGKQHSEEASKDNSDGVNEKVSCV

[14] = target: 5-hydroxytryptamine receptor 6 (Homo sapiens) (UniProt P50406)
[15] = target: 5-hydroxytryptamine receptor 7 (Homo sapiens) (UniProt P34969)
5-hydroxytryptamine receptor 7 (Homo sapiens), sequence (P34969 whole entry): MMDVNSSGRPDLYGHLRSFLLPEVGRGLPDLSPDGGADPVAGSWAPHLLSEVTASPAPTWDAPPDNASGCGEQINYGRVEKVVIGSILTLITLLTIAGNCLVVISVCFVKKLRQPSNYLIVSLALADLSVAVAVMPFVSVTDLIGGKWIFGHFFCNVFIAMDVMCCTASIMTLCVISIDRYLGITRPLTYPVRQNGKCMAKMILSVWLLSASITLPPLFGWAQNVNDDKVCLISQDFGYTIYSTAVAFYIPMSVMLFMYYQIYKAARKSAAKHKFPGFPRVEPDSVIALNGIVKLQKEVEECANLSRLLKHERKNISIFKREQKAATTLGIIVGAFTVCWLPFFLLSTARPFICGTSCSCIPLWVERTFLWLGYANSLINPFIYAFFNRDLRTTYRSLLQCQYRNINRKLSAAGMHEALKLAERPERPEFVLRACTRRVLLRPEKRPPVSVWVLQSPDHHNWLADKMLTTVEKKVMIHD

[16] = target: Delta-type opioid receptor (Homo sapiens) (UniProt P41143)
[17] = target: Sodium-dependent noradrenaline transporter (Homo sapiens) (UniProt P23975)
[18] = target: Sodium-dependent serotonin transporter (Homo sapiens) (UniProt P31645)
Sodium-dependent serotonin transporter (Homo sapiens), sequence (P31645 whole entry, looked up): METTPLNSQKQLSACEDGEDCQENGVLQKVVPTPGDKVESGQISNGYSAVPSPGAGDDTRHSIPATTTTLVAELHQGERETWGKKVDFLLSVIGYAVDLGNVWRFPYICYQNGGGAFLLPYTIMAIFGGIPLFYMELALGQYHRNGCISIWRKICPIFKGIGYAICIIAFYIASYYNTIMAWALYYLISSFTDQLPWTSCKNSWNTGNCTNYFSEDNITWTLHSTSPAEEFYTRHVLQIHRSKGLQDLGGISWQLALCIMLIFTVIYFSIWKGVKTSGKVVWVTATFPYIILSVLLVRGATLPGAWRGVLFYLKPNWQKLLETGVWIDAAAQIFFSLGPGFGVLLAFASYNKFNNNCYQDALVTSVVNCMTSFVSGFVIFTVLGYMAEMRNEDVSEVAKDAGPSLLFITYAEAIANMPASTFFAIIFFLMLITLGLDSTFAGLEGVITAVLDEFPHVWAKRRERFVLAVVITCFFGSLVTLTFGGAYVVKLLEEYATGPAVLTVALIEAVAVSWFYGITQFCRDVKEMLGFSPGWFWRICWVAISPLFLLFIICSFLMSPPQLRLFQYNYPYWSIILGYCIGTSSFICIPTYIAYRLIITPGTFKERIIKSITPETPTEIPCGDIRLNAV

[19] = target: Sigma intracellular receptor 2 (Homo sapiens) (UniProt Q5BJF2)
[20] = target: Translocator protein (Homo sapiens) (UniProt P30536)
[21] = target: 5-hydroxytryptamine receptor 1E (Homo sapiens) (UniProt P28566)
5-hydroxytryptamine receptor 1E (Homo sapiens), sequence (P28566 whole entry): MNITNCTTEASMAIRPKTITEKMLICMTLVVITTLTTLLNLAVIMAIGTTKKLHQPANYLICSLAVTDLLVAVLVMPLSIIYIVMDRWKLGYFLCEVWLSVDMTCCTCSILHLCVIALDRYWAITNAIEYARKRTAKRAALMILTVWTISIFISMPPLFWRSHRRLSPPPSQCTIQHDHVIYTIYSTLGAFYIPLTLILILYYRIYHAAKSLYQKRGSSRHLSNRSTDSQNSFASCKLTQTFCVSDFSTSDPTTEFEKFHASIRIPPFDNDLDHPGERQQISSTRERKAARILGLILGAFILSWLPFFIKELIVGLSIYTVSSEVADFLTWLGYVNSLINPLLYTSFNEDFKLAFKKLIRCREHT

Compound	inhibition [1]	inhibition [2]	inhibition [3]	inhibition [4]	inhibition [5]	inhibition [6]	inhibition [7]	inhibition [8]	inhibition [9]	inhibition [10]	inhibition [11]	inhibition [12]	inhibition [13]	inhibition [14]	inhibition [15]	inhibition [16]	inhibition [17]	inhibition [18]	inhibition [19]	inhibition [21]	also measured
CC(C)[C@H](CO)Nc1nc(Nc2cccc(Cl)c2)c2ncn(C(C)C)c2n1	6.44%	28.4%	-7.15%	21.1%	20.4%	11%	22.4%	8.79%	11.2%	5.71%	38.1%	60.1%	41.8%	52.3%	11.4%	5.89%	54.1%	3.66%	63.1%	–	inhibition [20]: 76.5%
O=C(O)c1cc(-c2ccc(C3CCNCC3)cc2)c2ccc(-c3ccc(C(F)(F)F)cc3)cc2c1	42.2%	27.2%	-2.41%	51.9%	27%	11.9%	28.9%	81%	-8.87%	51.4%	73.7%	73.1%	28.4%	11.3%	51.5%	14%	88%	4.44%	81.1%	2.57%	inhibition [20]: 21.7%
Cc1cc(NC(=O)NCCN2CCC(O)(Cc3ccccc3)CC2)c2ccccc2n1	82.4%	37.3%	28.1%	44%	10.7%	65.3%	27.4%	41.9%	3.45%	-6.82%	11.5%	91.7%	52.7%	8.02%	32%	15.6%	69.5%	66.3%	86%	5.03%	inhibition [20]: 44.3%
CN1CCCC(n2nc(Cc3ccc(Cl)cc3)c3ccccc3c2=O)CC1 (centres undefined)	62.3%	64.5%	-8.69%	43.1%	57.1%	79.1%	83.9%	24.1%	1.53%	5.72%	66.5%	57.9%	96.7%	74.7%	80.4%	24.1%	31.6%	19.8%	97%	57.6%	inhibition [20]: 12.9%
NCCc1cn(S(=O)(=O)c2c(Cl)nc3sccn23)c2ccccc12	93.4%	42.5%	39.8%	0.78%	41.2%	42.1%	32%	38.9%	11.2%	16.6%	82.5%	81.9%	94.2%	99.3%	66.9%	6.57%	84.1%	40.4%	82.9%	23.3%	inhibition [20]: -4.24%
CN(C)C(=O)N[C@H]1CC[C@H](CCN2CCN(c3cccc(Cl)c3Cl)CC2)CC1	95%	98%	31.6%	59.3%	36.3%	100%	–	-0.02%	2.57%	102%	93.7%	101%	110%	69.7%	104%	11.3%	49.7%	55%	88.3%	48%	inhibition [20]: 29%
Cc1c(P(=S)(c2ccccc2)c2ccccc2)n2ccccc2[n+]1C/C=C/c1ccccc1	58.1%	101%	65.4%	89%	16.3%	49%	48.5%	24.6%	31%	54.3%	45.4%	40.5%	55.7%	43.6%	34.3%	36.7%	83.2%	29.7%	88%	1.99%	inhibition [20]: 6.66%
CN1CCC(C(=O)c2cccc(NC(=O)c3c(F)cc(F)cc3F)n2)CC1	19.9%	6.36%	-3.08%	64%	15.1%	26.2%	–	73.7%	-0.15%	4.22%	43.4%	80.7%	1.42%	11.4%	52.8%	1.97%	23.5%	10.4%	91%	102%	–
c1nc(CC2CCNCC2)c[nH]1	14.5%	-1.91%	5.09%	1.07%	24.2%	27.8%	-4.62%	5.35%	105%	-10%	17.7%	9.58%	20.8%	18.8%	11.9%	3.71%	15.7%	1.26%	27.7%	9.31%	–
